Test results published in PMC6934184, “Selective DNA-PKcs inhibition extends the therapeutic index of localized radiotherapy and chemotherapy” (The Journal of Clinical Investigation, 2019).

Target: T1, MARK1 (MARK) (Homo sapiens, UniProt Q9P0L2)
T1 construct: purchased Thermo Fisher Scientific (Life Technologies) SelectScreen
Assay: SelectScreen Z'LYTE
Format: biochemical
Outline: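 Percent values come from Thermo SelectScreen profiling of NU5455, combining activity and binding assays. CSF1R was run in Z'LYTE format at Km app ATP, and CAMK1 in Adapta format with ATP listed at 10.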

T1 sequence (Q9P0L2 whole entry): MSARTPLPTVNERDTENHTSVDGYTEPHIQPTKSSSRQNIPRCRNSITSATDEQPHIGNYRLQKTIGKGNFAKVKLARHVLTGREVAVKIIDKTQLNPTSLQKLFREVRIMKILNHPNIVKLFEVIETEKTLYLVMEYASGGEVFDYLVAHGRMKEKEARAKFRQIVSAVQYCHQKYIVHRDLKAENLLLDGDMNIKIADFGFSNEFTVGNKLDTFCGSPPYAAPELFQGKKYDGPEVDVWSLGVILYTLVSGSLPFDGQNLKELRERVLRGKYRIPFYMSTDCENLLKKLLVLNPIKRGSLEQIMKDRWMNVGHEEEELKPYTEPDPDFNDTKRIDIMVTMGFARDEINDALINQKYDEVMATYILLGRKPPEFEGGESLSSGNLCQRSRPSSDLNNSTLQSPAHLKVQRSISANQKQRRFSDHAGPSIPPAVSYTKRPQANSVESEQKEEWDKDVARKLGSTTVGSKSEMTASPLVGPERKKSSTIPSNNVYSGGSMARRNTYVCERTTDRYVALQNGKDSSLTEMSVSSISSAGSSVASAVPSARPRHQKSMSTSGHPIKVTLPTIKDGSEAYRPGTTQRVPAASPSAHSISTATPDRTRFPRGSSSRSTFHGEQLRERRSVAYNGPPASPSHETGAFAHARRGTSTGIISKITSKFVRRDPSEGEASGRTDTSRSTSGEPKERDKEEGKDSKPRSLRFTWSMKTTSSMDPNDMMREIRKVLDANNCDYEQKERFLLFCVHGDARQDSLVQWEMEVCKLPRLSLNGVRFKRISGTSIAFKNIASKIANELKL

CN(C(=O)CN1CCOCC1)c1ccc2sc3c(-c4cccc5c(=O)cc(N6CC7CCC(C6)O7)oc45)cccc3c2c1 [NU5455]
inhibition at 1 µM: 5.1%
